Source: patent US20260317319A1, “NOVEL ERGOLINES AND METHODS OF TREATING MOOD DISORDERS” (Gilgamesh Pharma Inc., priority 2023, published 2026)
Read-outs that look alike come from different tables or passages of the source.

Experiments:
5-HT2B receptor = target: T1, 5-HT2B receptor (Homo sapiens, UniProt P41595); test: cell-based; assay type: cell-based; conditions: Ca2+ flux; for Emax: HEK293, agonist, HEK293, max dose, read-out: 5-HT2B % Act @ Max Dose; for EC50: agonist, HEK293
T1 construct: expressed in transfected cells; host or cells: HEK293, stably transfected
Description: (§1) Functional Assays at 5-HT2A, 5-HT2B, and 5-HT1A. Agonist activity at 5-HT2A, 5-HT2B, 5HT2C and 5-HT1A receptors was determined using a FLIPR Ca^2+ flux assay at WuXi AppTec (Hong Kong) Limited according to their standard protocols. Briefly, stably transfected cells expressing the receptor of interest and Gα15 in the case of 5-HT1A (HEK293 for 5-HT2A and 5-HT2B; CHO cells for 5-HT1A) were grown and plated in a 384 well plate and incubated at 37° C. and 5% CO2 overnight. A solution of 250 mM probenecid in 1 mL FLIPR assay buffer was prepared fresh. This was combined with a fluorescent dye (Fluo-4 Direct™) to make a final assay concentration of 2.5 mM. […] The fluorescent dye was then added to the assay plate along with assay buffer to a final volume of 40 μL. The cell plate was incubated for 50 min at 37° C. and 5% CO2 and placed into the FLIPR Tetra along with the compound plate. 10 μL of references and compounds were then transferred from the compound plate into the cell plate and the fluorescent signal was read.

5-HT1B receptor = target: T2, 5-HT1B receptor (Homo sapiens, UniProt P28222); test: cAMP accumulation functional assay at 5-HT1B; assay type: cell-based; conditions: agonist, cAMP accumulation, max dose; read-out: 5-HT1B % Act @ Max Dose
T2 construct: expressed in transfected cells
Description: Functional Assay at 5-HT1B. Agonist activity at 5-HT1B was determined using a CAMP accumulation protocol at WuXi AppTec (Hong Kong) Limited according to their standard protocols. Briefly, stably transfected cells were plated in an OptiPlate-384 well plate, incubated at RT for 60 mins, and cAMP standard solution (800 nM, 10 μL) was added to the blank well. Then, 10 μL detection reagent was added to each well, the plate incubated for 60 mins at RT, and the plate read using En Vision.

5-HT2A receptor [1] = target: T3, 5-HT2A receptor (Homo sapiens, UniProt P28223); test: cell-based; assay type: cell-based; parameters: expressed in transfected cells; host or cells: HEK293, stably transfected; conditions: for Emax: HEK293, agonist, HEK293, max dose, read-out: 5-HT2A % Act @ Max Dose; for Emax / EC50: Ca2+ flux; for EC50: agonist, HEK293
Description: as §1

5-HT1A receptor = target: T4, 5-HT1A receptor (Homo sapiens, UniProt P08908); test: cell-based; conditions: agonist, Ca2+ flux; for Emax: CHO, CHO cells with Gα15, max dose, read-out: 5-HT1A % Act @ Max Dose; for EC50: CHO cells with Gα15
T4 construct: expressed in transfected cells; host or cells: CHO cells, stably transfected
T4 sequence (P08908 1-422): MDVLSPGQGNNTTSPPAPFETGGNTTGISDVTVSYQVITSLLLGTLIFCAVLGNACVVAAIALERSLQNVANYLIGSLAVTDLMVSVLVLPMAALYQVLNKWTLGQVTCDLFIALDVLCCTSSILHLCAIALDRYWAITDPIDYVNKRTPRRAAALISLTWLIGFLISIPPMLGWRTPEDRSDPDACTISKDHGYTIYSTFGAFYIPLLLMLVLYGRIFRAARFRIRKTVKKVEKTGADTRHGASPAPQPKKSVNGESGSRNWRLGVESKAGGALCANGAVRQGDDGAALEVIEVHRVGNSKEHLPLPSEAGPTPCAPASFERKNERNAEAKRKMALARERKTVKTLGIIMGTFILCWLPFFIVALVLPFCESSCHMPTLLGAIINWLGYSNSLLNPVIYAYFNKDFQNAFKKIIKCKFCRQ
Description: as §1

in vitro [2] = assay type: in vitro ADME, rat; conditions: rat, microsomes, RLM (male Sprague-Dawley) 0.50 mg/mL, NADPH 1 mM, 1 μM compound, pH 7.4, 37° C., 60 min; for microsomal CLint: read-out: Intrinsic clearance (Clint); for half-life: read-out: half-life (t1/2)
Description: RLM Stability Pooled RLM from male Sprague-Dawley rats (Xenotech R1000) were used.

in vitro [3] = assay type: in vitro ADME, human; conditions: human, microsomes, HLM 0.50 mg/mL, NADPH 1 mM, 1 μM compound, pH 7.4, 37° C., 60 min; for microsomal CLint: read-out: Intrinsic clearance (Clint); for half-life: read-out: half-life (t1/2)
in vitro [4] = assay type: in vitro ADME, mouse; conditions: mouse, microsomes, MLM (male CD-1) 0.50 mg/mL, NADPH 1 mM, 1 μM compound, pH 7.4, 37° C., 60 min; for microsomal CLint: read-out: Intrinsic clearance (Clint); for half-life: read-out: half-life (t1/2)
Description: MLM Stability Pooled MLM from male CD-1 mice (BIOIVT M00501) were used.

5-HT2A receptor [5] = target: T3, 5-HT2A receptor; test: biochemical; assay type: binding; parameters: expressed in transfected cells; host or cells: HEK293, stably transfected; conditions: [3H]ketanserin 1 nM; HEK293 stable cell line; 1 h, 25 °C
Description: Affinity of the test compounds for the 5-HT2A receptor was determined in radioligand binding experiments with [^3H]ketanserin by WuXi AppTec (Hong Kong) Limited, using methods adapted from the literature and under conditions described in Table 1.

T3 sequence (P28223 whole entry): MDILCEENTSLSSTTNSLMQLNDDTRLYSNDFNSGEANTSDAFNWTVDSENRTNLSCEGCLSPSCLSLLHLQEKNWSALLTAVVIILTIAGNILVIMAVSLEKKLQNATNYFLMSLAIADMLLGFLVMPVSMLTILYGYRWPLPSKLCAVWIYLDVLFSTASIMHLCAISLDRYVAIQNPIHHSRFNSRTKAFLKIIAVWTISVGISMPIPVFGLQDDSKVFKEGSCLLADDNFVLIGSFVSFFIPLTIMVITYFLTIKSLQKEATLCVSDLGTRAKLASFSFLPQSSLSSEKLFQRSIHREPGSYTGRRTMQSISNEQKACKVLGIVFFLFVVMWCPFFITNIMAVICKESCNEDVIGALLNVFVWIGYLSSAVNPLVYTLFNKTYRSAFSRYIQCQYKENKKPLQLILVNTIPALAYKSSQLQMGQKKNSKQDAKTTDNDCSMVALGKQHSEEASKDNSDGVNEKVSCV
T2 sequence (P28222 whole entry): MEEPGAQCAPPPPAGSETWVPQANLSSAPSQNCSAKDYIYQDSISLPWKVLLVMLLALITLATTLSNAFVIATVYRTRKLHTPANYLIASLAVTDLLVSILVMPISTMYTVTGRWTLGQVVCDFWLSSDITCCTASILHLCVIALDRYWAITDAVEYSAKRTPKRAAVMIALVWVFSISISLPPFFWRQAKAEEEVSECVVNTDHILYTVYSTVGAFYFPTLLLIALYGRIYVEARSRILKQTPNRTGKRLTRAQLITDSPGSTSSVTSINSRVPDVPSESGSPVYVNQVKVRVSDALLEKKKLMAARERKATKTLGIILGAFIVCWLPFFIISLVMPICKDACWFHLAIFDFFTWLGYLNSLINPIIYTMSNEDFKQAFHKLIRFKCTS
T1 sequence (P41595 whole entry): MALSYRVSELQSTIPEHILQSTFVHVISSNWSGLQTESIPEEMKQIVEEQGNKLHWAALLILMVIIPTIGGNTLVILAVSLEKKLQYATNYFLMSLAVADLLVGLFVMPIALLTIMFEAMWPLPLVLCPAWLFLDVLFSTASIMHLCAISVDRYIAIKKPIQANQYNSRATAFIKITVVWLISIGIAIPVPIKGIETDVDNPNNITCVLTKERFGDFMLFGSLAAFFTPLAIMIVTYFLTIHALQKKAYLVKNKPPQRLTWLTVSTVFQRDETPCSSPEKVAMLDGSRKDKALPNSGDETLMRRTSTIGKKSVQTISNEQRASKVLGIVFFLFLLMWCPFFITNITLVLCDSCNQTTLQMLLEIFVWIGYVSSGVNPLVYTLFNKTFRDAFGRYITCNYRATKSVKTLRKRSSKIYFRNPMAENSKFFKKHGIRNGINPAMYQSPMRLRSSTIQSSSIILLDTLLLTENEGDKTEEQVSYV

| SMILES | Emax (5-HT2B receptor) [%] | Emax (5-HT1B receptor) [%] | Emax (5-HT2A receptor [1]) [%] | selectivity for 5-HT2A over the other serotonin receptors tested (5-HT2A receptor [1]; functional agonist activity) | Emax (5-HT1A receptor) [%] | EC50 (5-HT2B receptor) [µM] | microsomal CLint (in vitro [2]) [µL/min/mg] | half-life (in vitro [2]) [min] | microsomal CLint (in vitro [3]) [µL/min/mg] | half-life (in vitro [3]) [min] | microsomal CLint (in vitro [4]) [µL/min/mg] | half-life (in vitro [4]) [min] | Ki (5-HT2A receptor [5]) [nM] | EC50 (5-HT2A receptor [1]) [nM] | EC50 (5-HT1A receptor) [µM] |
| --- | --- | --- | --- | --- | --- | --- | --- | --- | --- | --- | --- | --- | --- | --- | --- |
| CC[C@@H](C)NC(=O)[C@@H]1C=C2c3cccc4[nH]cc(c34)C[C@H]2N(CCC(F)(F)F)C1 [Compound 40, (6aR,9R)—N—((R)-sec-butyl)-7-(3,3,3-trifluoropropyl)-4,6,6a,7,8,9-hexahydroindolo[4,3-fg]quinoline-9-carboxamide] | 8.46 | 62.1 | 45.1 | highly selective for 5-HT2A | 22.3 | – | – | – | – | – | – | – | – | – | – |
| CN1C[C@H](C(=O)N(CCF)CCF)C=C2c3cccc4[nH]cc(c34)C[C@H]21 [Compound 38, (6aR,9R)—N,N-bis(2-fluoroethyl)-7-methyl-4,6,6a,7,8,9-hexahydroindolo[4,3-fg]quinoline-9-carboxamide] | 28.1 | 94.7 | 93.4 | – | 90.5 | – | – | – | – | – | – | – | – | – | – |
| CCCN1C[C@H](C(=O)N(CC)CC)C=C2c3cccc4[nH]c(Br)c(c34)C[C@H]21 [Compound 9, (6aR,9R)-5-bromo-N,N-diethyl-7-propyl-4,6,6a,7,8,9-hexahydroindolo[4,3-fg]quinoline-9-carboxamide] | 89.6 | 81.5 | 75.8 | – | 101 | – | – | – | – | – | – | – | – | – | – |
| CCCN1C[C@H](C(=O)N2[C@@H](C)C[C@@H]2C)C=C2c3cccc4[nH]c(Br)c(c34)C[C@H]21 [Compound 47, ((6aR,9R)-5-bromo-7-propyl-4,6,6a,7,8,9-hexahydroindolo[4,3-fg]quinolin-9-yl)((2S,4S)-2,4-dimethylazetidin-1-yl)methanone] | 87 | 76.2 | 57 | – | 62.1 | – | – | – | – | – | – | – | – | – | – |
| C[C@H]1C[C@H](C)N1C(=O)[C@@H]1C=C2c3cccc4[nH]cc(c34)C[C@H]2N(CCCF)C1 [Compound 26, ((2S,4S)-2,4-dimethylazetidin-1-yl)((6aR,9R)-7-(3-fluoropropyl)-4,6,6a,7,8,9-hexahydroindolo[4,3-fg]quinolin-9-yl)methanone] | 101 | 77.2 | 83.2 | – | 97.9 | – | – | – | – | – | – | – | – | – | – |
| CC[C@@H](C)NC(=O)[C@@H]1C=C2c3cccc4[nH]cc(c34)C[C@H]2N(Cc2ccccc2)C1 [Compound 88, (6aR,9R)-7-benzyl-N—((R)-sec-butyl)-4,6,6a,7,8,9-hexahydroindolo[4,3-fg]quinoline-9-carboxamide] | 0.88 | – | 73.6 | – | 76.7 | > 10 | 246 | 5.6 | 455 | 3 | 774 | 1.8 | 3.1 | 347 | 8.71 |
| C[C@H]1C[C@H](C)N1C(=O)[C@@H]1C=C2c3cccc4[nH]cc(c34)C[C@H]2N(Cc2ccccc2)C1 [Compound 87, ((6aR,9R)-7-benzyl-4,6,6a,7,8,9-hexahydroindolo[4,3-fg]quinolin-9-yl)((2S,4S)-2,4-dimethylazetidin-1-yl)methanone] | 10 | – | 61.2 | – | 58.2 | > 3 | 60.1 | 23 | 97.2 | 14.3 | 681 | 2 | 2.1 | 669 | 54.1 |
| CCN(CC)C(=O)[C@@H]1C=C2c3cccc4[nH]cc(c34)C[C@H]2N(Cc2cccc(C)c2)C1 [Compound 98, (6aR,9R)—N,N-diethyl-7-(3-methylbenzyl)-4,6,6a,7,8,9-hexahydroindolo[4,3-fg]quinoline-9-carboxamide] | 3.37 | – | 76.5 | – | 31.2 | > 10 | 717 | 1.9 | 91.4 | 15.2 | 470 | 3 | 8.26 | 431 | > 100 |
